According to patent publication US6503935B1, “Imidazoles and related compounds as α1A agonists” (Abbott Laboratories, priority 1998, dated 2003):
Counter-ions that a name gives are not always drawn. Like-named read-outs stand apart in the source and are kept apart here.

Assays:
[1] = biological target: T1, α1A (rat epididymal vas deferens) (Rattus norvegicus, UniProt P43140); test: cell-based; conditions: rat epididymal vas deferens (values marked *); read-out: Agonist Tissue Response (pD2) α1A, test performed using rat epididymal vas deferens (converted)
T1 sequence (P43140 1-466): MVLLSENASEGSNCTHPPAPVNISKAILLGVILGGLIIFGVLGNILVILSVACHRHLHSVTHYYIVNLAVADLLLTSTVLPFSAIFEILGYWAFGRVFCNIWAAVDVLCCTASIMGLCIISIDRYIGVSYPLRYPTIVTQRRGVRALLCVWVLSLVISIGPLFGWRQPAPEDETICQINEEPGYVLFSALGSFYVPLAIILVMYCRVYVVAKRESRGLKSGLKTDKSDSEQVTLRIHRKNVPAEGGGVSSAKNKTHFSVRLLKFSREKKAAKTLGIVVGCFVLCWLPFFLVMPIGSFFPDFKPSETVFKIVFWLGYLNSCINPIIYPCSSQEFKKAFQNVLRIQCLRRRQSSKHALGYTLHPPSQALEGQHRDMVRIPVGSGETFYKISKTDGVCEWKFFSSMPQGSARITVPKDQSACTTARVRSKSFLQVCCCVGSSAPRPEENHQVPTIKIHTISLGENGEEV

[2] = biological target: T2, α1d (rat receptor expressed in mouse fibroblasts) (Rattus norvegicus, UniProt P23944); test: Radioligand binding with [3H]-prazosin, α1d; conditions: read-out: Radioligand Binding Ki α1d (Rat)
T2 construct: expressed in transfected cells; host or cells: mouse fibroblasts
T2 sequence (P23944 1-561): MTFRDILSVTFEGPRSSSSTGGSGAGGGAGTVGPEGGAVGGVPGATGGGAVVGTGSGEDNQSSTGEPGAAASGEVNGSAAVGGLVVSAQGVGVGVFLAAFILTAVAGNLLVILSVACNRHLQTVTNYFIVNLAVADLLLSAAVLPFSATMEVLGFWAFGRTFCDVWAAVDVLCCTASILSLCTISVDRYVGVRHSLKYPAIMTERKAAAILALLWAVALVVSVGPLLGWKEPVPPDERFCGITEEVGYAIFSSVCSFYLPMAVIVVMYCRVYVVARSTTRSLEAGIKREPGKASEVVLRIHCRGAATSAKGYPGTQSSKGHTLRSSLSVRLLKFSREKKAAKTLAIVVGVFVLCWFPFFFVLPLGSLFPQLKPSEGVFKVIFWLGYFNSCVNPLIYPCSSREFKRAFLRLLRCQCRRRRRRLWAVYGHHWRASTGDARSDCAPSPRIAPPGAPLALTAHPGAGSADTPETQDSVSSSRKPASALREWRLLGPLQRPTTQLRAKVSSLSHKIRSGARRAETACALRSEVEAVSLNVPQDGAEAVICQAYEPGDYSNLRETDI
Outline: (§1)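 Radioligand binding with [3H]-prazosin: α1A from rat submaxillary gland; α1b hamster receptor and α1d rat receptor, each expressed in mouse fibroblasts.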

α1B (rat spleen) = biological target: T3, α1B (rat spleen) (Rattus norvegicus, UniProt P15823); test: Agonist contraction of smooth muscle tissue, rat spleen; assay type: cell-based; conditions: read-out: Agonist Tissue Response (pD2) α1B (rat spleen) (converted)
T3 construct: α1B (rat spleen) and α1D (rat aorta) receptors; from tissue; host or cells: rat spleen
T3 sequence (P15823 1-515): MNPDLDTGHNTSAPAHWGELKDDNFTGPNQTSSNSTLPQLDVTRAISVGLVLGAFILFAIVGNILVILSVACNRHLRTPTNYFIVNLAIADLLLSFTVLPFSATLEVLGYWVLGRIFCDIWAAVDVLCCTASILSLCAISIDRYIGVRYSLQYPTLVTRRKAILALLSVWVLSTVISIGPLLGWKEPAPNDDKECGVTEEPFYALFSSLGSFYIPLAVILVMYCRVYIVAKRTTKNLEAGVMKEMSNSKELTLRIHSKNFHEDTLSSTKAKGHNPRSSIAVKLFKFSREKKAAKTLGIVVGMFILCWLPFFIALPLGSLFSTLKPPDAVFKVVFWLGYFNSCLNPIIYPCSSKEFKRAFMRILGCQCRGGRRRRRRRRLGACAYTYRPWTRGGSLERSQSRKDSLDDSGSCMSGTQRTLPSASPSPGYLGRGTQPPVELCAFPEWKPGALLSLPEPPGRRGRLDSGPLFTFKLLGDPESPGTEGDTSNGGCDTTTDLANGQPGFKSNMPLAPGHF

[3] = biological target: T4, α1A (rat submaxillary gland) (Rattus norvegicus, UniProt P43140); test: Radioligand binding with [3H]-prazosin, α1A
T4 construct: α1A (rat submaxillary gland); from tissue; host or cells: rat submaxillary gland
T4 sequence (P43140 1-466): T1 sequence (P43140 1-466)
Outline: as §1

Anesthetized Dogs [4] = test: Mean arterial pressure (MAP) in anesthetized dogs; assay type: in vivo, dog; conditions: iv dose causing a maximum increase in MAP of 20 mm Hg, anesthetized female dogs
Text: (§2) In vivo Functional Assays-Assessment of Intrurethral Pressure (IUP) and Mean Arterial Pressure (MAP) in Anesthetized Dogs
(§3) Female dogs (Marshall Farms, North Rose, N.Y.) greater that 2 years of age and weighing between 12 and 15 kg were used in these studies. At least 2 weeks prior to any agonist dosing, dogs were instrumented for the chronic measurement of arterial blood pressure by implanting a telemetry transducer/transmitter (TA11PA-C40, Data Sciences International, St. Paul, Minn.) into a carotid artery.
(§4) On the test day, dogs fasted since the previous afternoon were pre-anesthetized with thiopental sodium 15 mg/kg i.v. (Pentothal™, Abbott) and intubated. Anesthesia was maintained by allowing the dog to spontaneously breathe a mixture of isoflurane (2.5 to 3 volume %) and oxygen delivered by a Narkomed Standard anesthesia system (North American Drager, Telford, Pa.). An Abbocath-T™ i.v. catheter (18-G, Abbott) was inserted into the cephalic vein for the administration of agonists. A telemetry receiver (RA1310, DataSciences) was placed under the head of each dog and was interfaced to a computerized data acquisition system (Modular Instruments Inc.(MI2), Malvern, Pa.) which allowed for the continuous calibrated recording of arterial blood pressure which was electronically filtered to determine its mean value (MAP).
(§5) Dogs with chronic telemetry implants anesthetized as described above were placed in dorsal recumbency and a balloon catheter was inserted into the urethral orifice and advanced approximately 15 cm until the tip was well inside the bladder. The balloon was then inflated with 1 ml of room air and the catheter slowly withdrawn until resistance (corresponding to the bladder neck) was evident. The balloon was then deflated and the catheter withdrawn an additional 2 cm. The balloon was then reinflated and its catheter port connected to a Gould Statham P23Dd pressure transducer interfaced to a computerized data acquisition system (Modular Instruments, Inc., Malvern, Pa.) for the measurement of intraurethral pressure. Increasing iv doses of test agonists were administered and the maximum effect of each dose on IUP was recorded. The effect of each dose was allowed to return to baseline before the next dose was given.
(§6) From the resulting dose response curve, an ED5 value, for the dose causing a maximum increase in IUP of 5 mm Hg, could be estimated. An ED20 value for the dose causing a maximum increase in MAP of 20 mm Hg could also be estimated. A selectivity ratio of MAP ED20 vs. IUP ED5 was calculated.

Anesthetized Dogs [5] = test: Intraurethral pressure (IUP) in anesthetized dogs; assay type: in vivo, dog; conditions: Canis lupus familiaris; iv dose causing a maximum increase in IUP of 5 mm Hg, anesthetized female dogs; read-out: Mean IUP ED5
Anesthetized Dogs [6] = test: Intraurethral pressure (IUP) in anesthetized dogs; assay type: in vivo, dog; conditions: anesthetized female dogs, iv
Text: as §2, §3, §4, §5, §6

α1A (rabbit urethra) = biological target: T5, α1A (rabbit urethra) (Oryctolagus cuniculus, UniProt O02824); test: Agonist contraction of smooth muscle tissue, rabbit urethra; assay type: cell-based; conditions: rabbit urethra; read-out: Agonist Tissue Response (pD2) α1A (rab ureth) (converted)
T5 construct: tested for α1A functional activity using rabbit urethra; from tissue; host or cells: rabbit urethra
T5 sequence (O02824 1-466): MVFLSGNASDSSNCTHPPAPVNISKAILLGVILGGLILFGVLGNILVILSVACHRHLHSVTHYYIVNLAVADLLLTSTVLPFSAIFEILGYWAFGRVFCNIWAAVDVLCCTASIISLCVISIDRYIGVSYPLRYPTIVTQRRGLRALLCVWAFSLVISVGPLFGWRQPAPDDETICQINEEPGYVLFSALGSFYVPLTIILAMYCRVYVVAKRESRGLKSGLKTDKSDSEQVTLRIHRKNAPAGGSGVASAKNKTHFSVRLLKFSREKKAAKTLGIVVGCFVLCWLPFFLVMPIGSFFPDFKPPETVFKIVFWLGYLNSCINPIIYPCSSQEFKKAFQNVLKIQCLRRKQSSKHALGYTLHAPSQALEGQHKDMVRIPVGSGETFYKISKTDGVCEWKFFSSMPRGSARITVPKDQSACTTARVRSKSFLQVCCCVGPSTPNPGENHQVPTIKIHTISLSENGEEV
Description: Most of the compounds were tested for α1A functional activity using rabbit urethra as follows. Female New Zealand white rabbits (2.0-3.5 Kg) were sedated with CO2 and decapitated. […] Subsequent experimental conditions were as described above for the other tissues. Agonist concentration response curves were cumulative except for the vas deferens assay in which the transient response made such measurements impractical.

[7] = biological target: T6, α1b (hamster receptor expressed in mouse fibroblasts) (Mesocricetus auratus, UniProt P18841); test: Radioligand binding with [3H]-prazosin, α1b; conditions: read-out: Radioligand Binding Ki α1b (Hamster)
T6 construct: expressed in transfected cells; host or cells: mouse fibroblasts
T6 sequence (P18841 1-515): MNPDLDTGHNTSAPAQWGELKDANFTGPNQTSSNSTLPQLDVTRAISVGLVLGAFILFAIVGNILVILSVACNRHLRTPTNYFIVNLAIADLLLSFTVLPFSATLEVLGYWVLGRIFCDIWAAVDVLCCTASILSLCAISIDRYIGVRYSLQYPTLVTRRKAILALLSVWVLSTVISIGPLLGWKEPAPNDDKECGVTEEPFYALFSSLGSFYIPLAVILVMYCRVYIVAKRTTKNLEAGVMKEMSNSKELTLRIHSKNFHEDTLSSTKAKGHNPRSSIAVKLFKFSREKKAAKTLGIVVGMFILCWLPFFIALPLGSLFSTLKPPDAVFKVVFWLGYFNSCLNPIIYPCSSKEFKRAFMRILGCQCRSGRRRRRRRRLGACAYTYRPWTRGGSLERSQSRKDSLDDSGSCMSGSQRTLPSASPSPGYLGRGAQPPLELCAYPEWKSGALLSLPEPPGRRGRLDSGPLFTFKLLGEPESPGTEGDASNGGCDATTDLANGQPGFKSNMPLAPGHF
Description: For purposes of discussing α1 adrenoceptor subtypes, the IUPHAR convention of using lower case letters to define molecular clones and upper case letters to indicate pharmacologically defined adrenoceptors has been followed. Compounds of formula I were evaluated in radioligand binding assays specific for α1A (rat submaxillary gland), α1b (hamster receptor expressed in mouse fibroblasts) and α1d (rat receptor expressed in mouse fibroblasts) using [^3H]-prazosin as the radioligand as described in Knepper, et al. J. Pharm.

α1D (rat aorta) = biological target: T7, α1D (rat aorta) (Rattus norvegicus, UniProt P23944); test: Agonist contraction of smooth muscle tissue, rat aorta; assay type: cell-based; conditions: read-out: Agonist Tissue Response (pD2) α1D (rat aorta) (converted)
T7 construct: α1B (rat spleen) and α1D (rat aorta) receptors; from tissue; host or cells: rat aorta strips, endothelium removed
T7 sequence (P23944 1-561): T2 sequence (P23944 1-561)

**Q.** With CCCn1cnc(C2CCCc3c2ccc(O)c3NS(C)(=O)=O)c1 (stereo not drawn) [Example 7, N-[2-hydroxy-5-(1-propyl-1H-imidazol-4-yl)-5,6,7,8-tetrahydro-1-naphthalenyl]methanesulfonamide, hydrochloride] as the molecule, how does the EC50 [1] read?
**A.** > 1000 µM

**Q.** And the Ki [2]?
**A.** 3.78 µM

**Q.** And the EC50 (α1B (rat spleen))?
**A.** > 1000 µM

**Q.** What about the Ki [3] of the same molecule?
**A.** 0.661 µM

**Q.** Which “Mean MAP ED20” value (Anesthetized Dogs [4]) does the source give for O=S(=O)(CC(F)(F)F)Nc1cccc2c1CCCC2c1c[nH]cn1 (single isomer, unassigned; (+)) [Example 36, (+)-N-[5,6,7,8-tetrahydro-5-(1H-imidazol-4-yl)-1-naphthalenyl]-2,2,2-trifluoroethanesulfonamide] here?
**A.** 508 nmol/kg

**Q.** And the ED (5 mmHg IUP increase) (Anesthetized Dogs [5])?
**A.** 0.156 µmol/kg

**Q.** And the Ki ([3]; rat submaxillary gland, [3H]-prazosin)?
**A.** 0.124 µM

**Q.** What about the “Mean Selectivity Ratio MAP ED20/IUP ED5” value (Anesthetized Dogs [6]) of the same molecule?
**A.** 3.6

**Q.** What about the EC50 (α1A (rabbit urethra)) of the same molecule?
**A.** 1.86 µM

**Q.** Which Ki [2] does the source give for CCn1cnc(C2CCCc3c2ccc(O)c3NS(C)(=O)=O)c1.Cl (stereo not drawn) [Example 6, N-[5-(1-ethyl-1H-imidazol-4-yl)-2-hydroxy-5,6,7,8-tetrahydro-1-naphthalenyl]methanesulfonamide, hydrochloride] here?
**A.** 16.7 µM

**Q.** And the melting point?
**A.** 230 to 234 °C (dec.)

**Q.** And the Ki [3]?
**A.** 2.08 µM

**Q.** For CN(c1cccc2c1CCCC2c1c[nH]cn1)S(C)(=O)=O (stereo not drawn) (as salt: maleate) [Example 15, N-[5,6,7,8-tetrahydro-5-(1H-imidazol-4-yl)-1-naphthalenyl]-N-methylmethanesulfonmamide, maleate], which melting point is on record?
**A.** 146 to 147 °C

**Q.** Which melting point does the source give for COc1ccc(NS(C)(=O)=O)c2c1C(c1c[nH]cn1)CCC2 (stereo not drawn) (as salt: maleate) [Example 26, N-[5,6,7,8-tetrahydro-(1H-imidazol-4-yl)-4-methoxyy-1-naphthalenyl]methanesulfonamide, maleate] here?
**A.** 181 to 184 °C

**Q.** Which melting point does the source give for O=C(Nc1cccc2c1CCCC2c1c[nH]cn1)C(F)(F)F (stereo not drawn) (as salt: maleate) [Example 17, 2,2,2-trifluoro-N-[5-(1H-imidazol-4-yl)-5,6,7,8-tetahydro-1-naphthalenyl]acetamide, maleate] here?
**A.** 181 to 182 °C

**Q.** For C=C(c1cccc(NS(=O)(=O)CC)c1)c1c[nH]cn1 (as salt: maleate) [Example 45, N-{3-[1-(1H-imidazol-4-yl)vinyl]phenyly}ethanesulfonamide, maleate], which melting point is on record?
**A.** 151 to 155 °C

**Q.** Which EC50 [1] does the source give for CS(=O)(=O)Nc1c(O)ccc2c1CCCC2c1c[nH]cn1 (stereo not drawn) [Example 2, N-[2-hydroxy-5-(1H-imidazol-4-yl)-5,6,7,8-tetrahydro-1-naphthalenyl]methanesulfonamide, hydrochloride] here?
**A.** 0.017 µM

**Q.** What about the Ki [2] of the same molecule?
**A.** 1.26 µM

**Q.** What about the Ki [7] of the same molecule?
**A.** 2.52 µM

**Q.** And the EC50 (α1D (rat aorta))?
**A.** 1.91 µM

**Q.** What about the Ki [3] of the same molecule?
**A.** 0.0361 µM
